“And” between values parts separate entries of the source, which are not always exact repeats. Equal values may be shown once. Ends that are not written are not given here.
Key:
[1] = test system: neurons in mixed neuroglial cultures intoxicated with beta-amyloid 1-42; test: MAP2 assay: neuronal survival in mixed neuroglial cultures following beta-amyloid intoxication; assay type: cell-based, rat
Protocol: Newborn rats were used to prepare cerebral cortical astrocytes cell cultures as described above. After suspending the cells in D1, they were centrifuged at 100 g for 5 minutes and the supernatant discarded. The cell pellet was resuspended in solution D2 containing 5% heat inactivated horse serum (Biological Industries, Beit Haemek, Israel), 0.1% gentamycin, 0.1% penicillin-streptomycin-nystatin, 1% N3 (defined medium components essential for neuronal development in culture, (Romijn HJ, Brain Res., 254:583-9 (1981)]), 15 μg/ml 5′-fluoro-2-deoxyuridine (FUDR, Sigma, Rehovot, Israel), and 3 μg/ml uridine (Sigma, Rehovot, Israel) in DMEM. Cells were counted in a hemocytometer, diluted in D2 and 17,000 cells/well/96 well plate were seeded on 8-day-old astrocytes prepared as described above. The medium was changed the next day to D2 without FUDR and uridine. Cells were allowed to grow for one week at 37° C. 10% CO2 before experiments were performed.
Neuronal survival in neuroglial cultures following beta-amyloid intoxication was assayed using the neuron specific antibody, MAP2. […] The cells were incubated for 5 days in 10% CO2 at 37°C.
5 days after the addition of beta-amyloid and the peptide, the cells were fixed by removing the media from each well and the addition of cold methanol. The cells were left in the refrigerator overnight. The cells were immunostained with anti-MAP2 as previously described (Brooke S M et al., Neurosci. Lett., 267:21-4(1999)): the methanol was removed and the cells were washed 4 times with phosphate buffered saline (PBS). Blocking for non-specific antibody binding was performed by incubating the cells in 5% non-fat milk in PBS overnight at 4° C. The blocking solution was then removed and anti-MAP2(1:1000; Sigma, Rehovot, Israel) was added to each well. The cells were incubated for 30 minutes at room temperature, followed by 4 washes with PBS. Biotinylated anti-mouse IgG (1:200, Vector Laboratories, Burlingame, Calif., USA) was then added to each well, and the cells were incubated for 30 minutes at room temperature followed by 4 washes with PBS. The cells were incubated at room temperature for 30 minutes with the ABC reagent (Vector Laboratories, Burlingame, Calif., USA) prepared according to the manufacturer's protocol and then washed 4 times with PBS. ABTS reagent, prepared according to the manufacturer's protocol (Vector Laboratories, Burlingame, Calif., USA) was then added to each well and the cells were incubated for 20 minutes in the dark at room temperature. The plates were read in an ELISA plate reader at 405nm. As blanks, wells containing untreated cells and no primary antibody were used.

[2] = test system: cerebral cortical astrocytes intoxicated with ZnCl2; test: MTS assay: survival of astrocytes following intoxication with ZnCl2; assay type: cell-based, mice
Protocol: Cell cultures were prepared as previously described (McCarthy KD, de Vellis J., J. Cell Biol., 85:890-902 (1980); Gozes I et al., J. Pharmacol. Exp. Ther., 257:959-66 (1991)). Newborn mice (Harlan Biotech Israel Ltd., Rehovot, Israel) were sacrificed by decapitation and the brain was removed. The cortex was dissected and meninges were removed. The tissue was minced with scissors and placed in Hank's balanced salts solution X1 (HBSS, Biological Industries, Beit Haemek, Israel), 15 mM HEPES Buffer pH 7.3 (Biological Industries, Beit Haemek, Israel) and 0.25% trypsin (Biological Industries, Beit Haemek, Israel) in an incubator at 37° C. 10% CO2 for 20 minutes. The cells were then placed in 8 ml of solution D1 containing 10% heat inactivated fetal calf serum (Biological Industries, Beit Haemek, Israel), 0.1% gentamycin sulphate solution (Biological Industries, Beit Haemek, Israel) and 0.1% penicillin-streptomycin-nystatin solution (Biological Industries, Beit Haemek, Israel) in Dulbecco's modified Eagle's medium (DMEM, Sigma, Rehovot, Israel). The cells were allowed to settle, and were then transferred to a new tube containing 2.5 ml of D1 and triturated using a Pasteur pipette. The process was repeated twice more. Once all the cells were suspended, cell density was determined using a hemocytometer (Neubauer improved, Germany) and 1×10^6 cells/15 ml D1 were inoculated into each 75 cm^2 flask (Corning, Corning, N.Y., USA). Cells were incubated at 37° C. 10% CO2. The medium was changed after 24 hours and cells were grown until confluent (one week).
The flasks containing the cerebral cortical astrocytes were shaken to dislodge residual neurons and oligodendrocytes that may be present. Flasks were then washed with 10 ml cold HBSSx1, HEPES15 mM. 5 ml versene-trypsin solution (BioLab, Jerusalem, Israel) was added to each flask and the flasks were incubated at room temperature for 5 minutes to remove astrocytes. The flasks were then shaken to dislodge the cells. The versene-trypsin solution was neutralized with 5 ml D1. The cell suspension was collected and centrifuged at 100 g for 10 minutes. The supernatant was removed and the cells resuspended in D1. The cells were plated in 96 well plates (Corning, Corning, N.Y., USA) (each flask to 2 plates) and incubated until confluent at 37° C. 10% CO2.
The survival of astrocytes following intoxication with ZnCl2 was tested using the MTS assay. One week after sub-culturing the astrocytes into 96-well plates, the astrocyte growth medium was aspirated and fresh medium containing 200μM ZnCl2 and ascending concentrations of NATLSHIHQ (SEQ ID NO:4) or STPTAIPQ (SEQ ID NO:6)(concentration range: 10^−16-10^−7M) was added to the cells. The cells were incubated for 4 hours in 10% CO2 at 37°C., followed by an MTS assay using Celltiter 96 Aqueous non-radioactive cell proliferation assay (Promega, Madison, WI, USA) which was performed according to the manufacturer's instructions and read in an ELISA plate reader at 490nm.

[3] = test system: neurons of the central nervous system; conditions: in vitro assays and in vivo disease models; cited from earlier work
[4] = test system: cell cultures exposed to a wide variety of toxins; conditions: against a wide variety of toxins; cited from earlier work
[5] = test system: animal models simulating parts of the Alzheimer's disease pathology; conditions: in vivo; cited from earlier work
normal aging rats = conditions: intranasal administration; cited from earlier work
ischemic injury = conditions: after ischemic injury; cited from earlier work
[6] = test system: closed head injury in mice; conditions: cited from earlier work
[7] = test system: model of fetal alcohol syndrome; conditions: in vivo, ip; cited from earlier work
beta III tubulin = beta III tubulin (Homo sapiens, UniProt Q13509); conditions: affinity chromatography; cited from earlier work
[8] = in vivo; cited from earlier work

Chain of beta III tubulin (Q13509 whole entry): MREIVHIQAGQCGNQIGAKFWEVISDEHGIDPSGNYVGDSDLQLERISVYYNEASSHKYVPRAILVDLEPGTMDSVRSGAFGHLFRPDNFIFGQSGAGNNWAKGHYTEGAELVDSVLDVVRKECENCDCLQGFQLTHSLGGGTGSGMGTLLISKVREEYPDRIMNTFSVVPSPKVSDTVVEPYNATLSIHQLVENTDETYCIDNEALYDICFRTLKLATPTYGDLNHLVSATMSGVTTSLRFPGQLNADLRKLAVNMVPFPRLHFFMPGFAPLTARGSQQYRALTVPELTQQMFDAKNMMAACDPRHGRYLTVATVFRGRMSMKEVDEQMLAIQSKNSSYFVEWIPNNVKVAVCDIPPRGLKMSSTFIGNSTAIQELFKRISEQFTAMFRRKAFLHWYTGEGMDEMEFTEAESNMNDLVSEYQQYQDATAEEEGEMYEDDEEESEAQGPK
Chain of beta III tubulin (Q71U36 whole entry partner): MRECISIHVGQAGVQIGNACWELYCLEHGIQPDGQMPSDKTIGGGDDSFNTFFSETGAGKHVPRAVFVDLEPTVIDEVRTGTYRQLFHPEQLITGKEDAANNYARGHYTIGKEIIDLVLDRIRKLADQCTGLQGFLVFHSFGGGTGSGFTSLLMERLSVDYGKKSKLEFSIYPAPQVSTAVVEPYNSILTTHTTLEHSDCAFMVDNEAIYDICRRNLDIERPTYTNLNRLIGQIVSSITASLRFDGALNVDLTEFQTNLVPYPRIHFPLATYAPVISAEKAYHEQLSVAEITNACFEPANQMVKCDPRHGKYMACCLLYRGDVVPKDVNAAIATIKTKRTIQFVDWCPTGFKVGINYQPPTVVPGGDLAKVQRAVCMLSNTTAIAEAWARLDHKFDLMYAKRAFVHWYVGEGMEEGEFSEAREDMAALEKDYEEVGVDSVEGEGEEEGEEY

STPTAIPQ (synthetic NAP-like peptide)
effective concentrations on neuronal survival: Neurons (25 μM beta-amyloid) ([1]; MAP2 assay, 5 days, tested 10^−19M to 10^−5M, significance vs negative control in cell): 10^−13 M and 10 ^−5 M | activity in neuroprotection assay ([1]; neuroglial cells, beta-amyloid): active | effective concentrations on astrocyte survival: Astrocytes (200 μM ZnCl2) ([2]; MTS assay, 4 hours, tested 10^−16-10^−7M, significance vs negative control in cell): 10^−7 (p < 0.05) M | activity in neuroprotection assay ([2]; astrocytes, ZnCl2): active

SALLRSIPA
neuron survival in response to various insults [3]: keep neurons of the central nervous system alive

Asn-Ala-Pro-Val-Ser-Ile-Pro-Gln [NAP]
neuroprotective activity in cell cultures [4]: neuroprotective activity at femtomolar concentrations | protection in Alzheimer's disease models [5]: protective | performance in the Morris water maze (normal aging rats): improved performance | infarct volume and motor function deficits (ischemic injury): reduced infarct volume and motor function deficits | damage caused by closed head injury [6]: reducing damage | fetal death after intraperitoneal injection of alcohol [7]: inhibited | interaction with tubulin (beta III tubulin): specifically interact with beta III tubulin | crossing of the blood-brain barrier [8]: can cross the blood-brain barrier
